Values of other authors in patent US5530141A, “2,4-diaryl-1,3-dithiolanes; 2,4-diaryl-1,3-dioxolanes; 2,4-diaryl-1,3-oxathiolanes; and 2,5-diaryl-1,3-oxathiolanes for the treatment of disorders mediated by platelet activating factor or products of 5-lipoxygenase” (Center for Innovative Technology, priority 1992, dated 1996).

Assays:
[1] = cited from earlier work
[2] = test system: PAF-induced rat cutaneous vascular permeability; details: cited from earlier work
PAF receptor sites = details: cited from earlier work
5-lipoxygenase = details: cited from earlier work

Compound | plasma half life [1] | inhibition of PAF-induced rat cutaneous vascular permeability ([2]; dosage of 30 mg/kg body weight, rat) | oral activity ([2]; oral) | inhibits the binding of tritiated PAF to PAF receptor sites (PAF receptor sites; Hwang et al. 1985) | potency of trans-L-652,731 relative to cis-L-652,731 (PAF receptor sites; more potent than cis-L-652,731) | effect on the enzyme 5-lipoxygenase (5-lipoxygenase)
1-O-alkyl-2-acetyl-sn-glycerol-3-phosphorylcholine [PAF] | 2 to 4 min |  |  |  |  | 
COc1cc([C@H]2CC[C@H](c3cc(OC)c(OC)c(OC)c3)O2)cc(OC)c1OC (relative stereo) [L-652,731, trans-2,5-bis-(3,4,5-trimethoxyphenyl) tetrahydrofuran] |  | inhibit PAF-induced rat cutaneous vascular permeability | orally active | inhibits the binding of tritiated PAF to PAF receptor sites | approximately 1000 times | no effect on the enzyme 5-lipoxygenase
